Test results: US20260007133A1, “HERBICIDAL COMPOSITION COMPRISING AZINE COMPOUNDS” (BASF SE, priority 2022, published 2026)
Several values for one entry are separate records, joined by “and”; a condition that tells them apart may be missing. Identical values can stand only once.

Legend:
Format in all cases: in vivo
[1] = system: Geranium pusillum; test: Greenhouse post-emergence (POST) herbicidal test on GERPU; conditions: Geranium pusillum, post-emergence; for inhibition at 4 g/ha: use rate 4 gai/ha
Procedure, shortened: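 Visual damage rating on a 0–100 scale, 0 meaning normal growth and 100 complete kill of above-ground parts, taken 20 days after treatment. Spray applied post-emergence to plants 3–15 cm tall in loamy sand with approximately 3.0% humus.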

[2] = system: SETFA; test: Greenhouse pre-emergence (PRE) herbicidal test on SETFA; conditions: Setaria faberi, use rate 1 gai/ha
[3] = system: Ipomoea hederacea; test: Greenhouse pre-emergence (PRE) herbicidal test on IPOHE; conditions: PRE, IPOHE, 20 DAT
Procedure, shortened: (§1)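 First, each species was sown separately in loamy sand containing about 3.0% humus. Then the aqueous active compound was applied by finely distributing nozzles straight after sowing, pots were gently irrigated and covered with transparent hoods, and injury was assessed on a 0–100 scale at 20 DAT.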

[4] = system: Commelina benghalensis; test: Greenhouse post-emergence (POST) herbicidal test on COMBE; conditions: 480 h, use rate 16 gai/ha, 20 DAT
Method: (§2) The culture containers used were plastic pots containing loamy sand with approximately 3.0% of humus as substrate. The seeds of the test plants were sown separately for each species.
(§3) For the post-emergence treatment, the test plants were grown to a plant height of from 3 to 15 cm, depending on the plant habit, and only then treated with the active compounds which had been suspended or emulsified in water. To this end, the test plants were either sown directly, and grown in the same containers, or they were first grown separately as seedlings and transplanted into the test containers a few days prior to treatment.
(§4) Depending on the species, the plants were kept at 10-25° C. and 20-35° C., respectively.
(§5) The test period extended over 2 to 4 weeks. During this time, the plants were tended and their response to the individual treatments was evaluated.
(§6) Evaluation was carried out using a scale from 0 to 100. 100 means no emergence of the plants, or complete destruction of at least the above-ground parts, and 0 means no damage or normal course of growth. A good herbicidal activity is given at values of at least 70, and very good herbicidal activity is given at values of at least 85.
(§7) If not stated differently, the respective components A and B, and if appropriate, C were formulated as a 5% by weight strength emulsion concentrate and, with addition of the amount of solvent system, introduced into the spray liquor used for applying the active compound.
(§8) As indicated application was either post emergent (POST) at the respective growth stage (GS) of the weed (BBCH code), or pre-emergent (PRE).
(§9) Assessment was 20 days after treatment (DAT).

[5] = system: Polygonum convolvulus; test: Greenhouse pre-emergence (PRE) herbicidal test on POLCO; conditions: Fallopia convolvulus, pre-emergence, use rate 1 gai/ha
Description: as §2
For the pre-emergence treatment, the active compounds, suspended or emulsified in water, were applied directly after sowing by means of finely distributing nozzles. The containers were irrigated gently to promote germination and growth and subsequently covered with transparent plastic hoods until the plants had rooted. This cover caused uniform germination of the test plants unless this was adversely affected by the active compounds.
as §4, §5, §6, §7, §8, §9

[6] = system: Abutilon theophrasti; test: Greenhouse pre-emergence (PRE) herbicidal test on ABUTH; conditions: Abutilon theophrasti, pre-emergence
Procedure, shortened: (§10)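 Herbicidal effect was assessed 20 DAT after pre-emergence treatment of sown pots, using a 0-100 scale where 100 means no emergence or destruction of at least the above-ground parts.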

[7] = system: Avena fatua; test: Greenhouse pre-emergence (PRE) herbicidal test on AVEFA; conditions: use rate 4 gai/ha
Procedure, shortened: as §1

[8] = system: Setaria viridis; test: Greenhouse post-emergence (POST) herbicidal test on SETVI; conditions: 480 h, 20 DAT
Method: as §2, §3, §4, §5, §6, §7, §8, §9

[9] = system: Euphorbia heterophylla; test: Greenhouse pre-emergence (PRE) herbicidal test on EPHHL
Procedure, shortened: as §10

[10] = system: Ambrosia artemisiifolia; test: Greenhouse pre-emergence (PRE) herbicidal test on AMBEL; conditions: Ambrosia artemisiifolia, pre-emergence, 480 h, PRE, AMBEL, use rate 1 gai/ha, 20 DAT
[11] = system: Echinochloa crus-galli; test: Greenhouse pre-emergence (PRE) herbicidal test on ECHCG; conditions: PRE, ECHCG, use rate 2 gai/ha, 20 DAT
[12] = system: Alopecurus myosuroides; test: Greenhouse pre-emergence (PRE) herbicidal test on ALOMY
Procedure, shortened: as §10

SMILES: COc1c(F)cc(F)c(F)c1Nc1nc(N)nc(C(C)(C)F)n1 [Compound I-1]
- inhibition at 2 g/ha ([1]; 480 h, POST, GERPU, use rate 2 gai/ha, 20 DAT, read-out: % activity): 0%
- inhibition at 4 g/ha ([1]; 480 h, POST, GERPU, 20 DAT): 0%
- inhibition at 8 g/ha ([1]; 480 h, POST, GERPU, use rate 8 gai/ha, 20 DAT, read-out: % activity): 50%
- inhibition at 16 g/ha ([1]; 480 h, POST, GERPU, use rate 16 gai/ha, 20 DAT): 70%
- inhibition at 4 g/ha ([1]; GERPU POST): 55%
- inhibition at 1 g/ha ([1]; POST, GERPU, use rate 1 gai/ha): 30%
- inhibition at 1 g/ha [2]: 60%
- inhibition at 8 g/ha ([3]; Ipomoea hederacea, pre-emergence, 480 h, use rate 8 gai/ha): 70%
- inhibition at 16 g/ha ([3]; Ipomoea hederacea, pre-emergence, 480 h, use rate 16 gai/ha): 75%
- % activity ([3]; use rate 16 gai/ha): 60%
- inhibition at 16 g/ha [4]: 75%
- inhibition at 1 g/ha [5]: 50%
- inhibition at 2 g/ha ([6]; 480 h, PRE, ABUTH, use rate 2 gai/ha, 20 DAT, read-out: % activity): 65%
- inhibition at 4 g/ha ([6]; 480 h, PRE, ABUTH, use rate 4 gai/ha, 20 DAT): 75%
- inhibition at 1 g/ha ([6]; ABUTH PRE, use rate 1 gai/ha, read-out: % activity): 75%
- inhibition at 4 g/ha [7]: 70%
- inhibition at 2 g/ha ([8]; use rate 2 gai/ha): 5%
- inhibition at 4 g/ha ([8]; use rate 4 gai/ha): 70%
- % activity ([9]; EPHHL PRE, use rate 4 gai/ha): 20%
- inhibition at 16 g/ha ([9]; Euphorbia heterophylla, pre-emergence, 480 h, PRE, EPHHL, use rate 16 gai/ha, 20 DAT): 60%
- inhibition at 4 g/ha ([9]; Euphorbia heterophylla, pre-emergence, EPHHL PRE, use rate 4 gai/ha): 25%
- inhibition at 1 g/ha ([9]; Euphorbia heterophylla, pre-emergence, PRE, EPPHL, use rate 1 gai/ha, read-out: % activity): 0%
- inhibition at 4 g/ha ([9]; Euphorbia heterophylla, pre-emergence, PRE, EPPHL, use rate 4 gai/ha): 70%
- inhibition at 1 g/ha [10]: 10%
- % activity [11]: 35% and 65%
- % activity ([12]; ALOMY PRE, use rate 1 gai/ha): 30%
- inhibition at 1 g/ha ([12]; Alopecurus myosuroides, pre-emergence, 480 h, PRE, ALOMY, use rate 1 gai/ha, 20 DAT): 10%
- inhibition at 1 g/ha ([12]; Alopecurus myosuroides, pre-emergence, ALOMY PRE, use rate 1 gai/ha): 15%
- inhibition at 4 g/ha ([12]; Alopecurus myosuroides, pre-emergence, ALOMY PRE, use rate 4 gai/ha): 90%
